Assay results taken from US20150290260A1, “METHODS OF USE FOR PROBIOTICS AND PREBIOTICS” (Mead Johnson Nutrition Company, priority 2014, published 2015).

Key:
[1] = tested on: neurotransmitters (biogenic monoamines) in the brain; assay: Neurotransmitter levels in the brain by HPLC, neonatal zymosan visceral hyperalgesia rats; type: in vivo; details: brain stem, vs non-LGG treated rats, LGG P21-P60, FIG. 6A
Text: This example describes the effect of LGG on the neurotransmitter levels in the brain. Briefly, chronic visceral hyperalgesia was induced in rats by administration of intracolonic zymosan (or normal saline for control) for three consecutive days during postnatal day 14-16 (P14-P16). LGG treatment was initiated after weaning (P21) and continued until P60. The levels of neurotransmitters and amino acids were quantified in the frontal cortex, sub-cortex, brain stem and cerebellum.
The quantitative assessment of neurotransmitters was conducted using HPLC-based separation followed by fluorescent and/or electrochemical detection. Briefly, brain sections were homogenized, using a tissue dismembrator, in 100-750 ul of 0.1 M TCA, which contains 10-2 M sodium acetate, 10^-4 M EDTA, 5 ng/ml isoproterenol (as internal standard) and 10.5% methanol (pH 3.8). Samples were spun in a microcentrifuge at 10000 g for 20 minutes. Samples of the supernatant were then analyzed for neurotransmitters (biogenic monoamines). Biogenic amines were determined by a specific HPLC assay utilizing an Antec Decade II (oxidation: 0.4) (3 mm GC WE, HYREF) electrochemical detector operated at 33° C. Twenty I samples of the supernatant were injected using a Water 2707 autosampler onto a Phenomenex Kintex (2.6u, 100 Å) C18 HPLC column (100×4.60 mm). Biogenic amines were eluted with a mobile phase consisting of 89.5% 0.1 M TCA, 10-2 M sodium acetate, 10^-4 M EDTA and 10.5% methanol (pH 3.8). Solvent was delivered at 0.6 ml/min using a Waters 515 HPLC pump. Using this HPLC solvent the following biogenic amines eluted in the following order: noradrenaline, Adrenaline, DOPAC, Dopamine, 5-HIAA, HVA, 5-HT, and 3-MT. HPLC control and data acquisition were managed by Empower software.

[2] = Viscera-motor response (VMR) to colorectal distension (CRD), rat colonic zymosan-treated hyperalgesia model; type: in vivo, rats
Experimental: Example 3 utilized a rat colonic zymosan-treated hyperalgesia model (i.e. a model of post-inflammatory visceral pain sensitivity). Zymosan was injected into the colon during the neonatal period producing short-term inflammation and subsequent long-term colonic hypersensitivity.
In this experiment, weanling rats were fed a control diet or control diet plus LGG and/or PDX/GOS for 40 days. The VMR to CRD was quantified using electromyographic (EMG) recordings from the external oblique muscle of the abdomen as an objective measure of visceral sensation in all groups. A stimulus-response function to graded CRD was constructed to test the colonic intensity dependent increase in EMG activity change of external oblique muscle.

Lactobacillus rhamnosus GG [LGG]
level of 5-hydroxyindoleacetic acid (5-HIAA) [1]: significant increase
level of noradrenaline (NA) [1]: significant increase
level of serotonin (5-HT) [1]: significant increase
visceral hypersensitivity ([2]; neonatal colonic zymosan model): attenuated
sensitivity to pain (EMG recordings) ([2]; p<0.05 vs Control+Zymosan, n=10, fed 40 days): significantly attenuated
viscera-motor response (VMR) to CRD ([2]; zymosan-treated rats, FIG. 7): significantly attenuated
